Among the data in patent US7595327B2, “Beta-sulfonamide hydroxamic acid inhibitors of tace/matrix metalloproteinase” (priority 2005, dated 2009) are IC50 values, retold here.

Assay [1] addresses T1, TACE (catalytic domain of the recombinant TACE protein) (Homo sapiens, UniProt P78536).
T1 construct: The catalytic domain of the recombinant TACE protein was expressed and purified; made in house
As to the kind of experiment: TACE FRET assay using TACE Cat. The format is biochemical. To be noted: FRET, pro-TNF-α substrate peptide; read-out: TACE IC50. The essentials: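 Recombinant TACE catalytic domain (1 ug/ml) pre-incubated 10 min at room temperature with inhibitor in 50 mM Tris-HCl pH 7.4, 25 mM NaCl, 4% glycerol, 0.005% Brij 35; Abz/Dpa pro-TNF-α peptide substrate added, fluorescence (Ex 320/Em 420) followed 10 min; IC50 from initial rates by Hill fit.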

A further assay deals with T2, recombinant human MMP-2 (Homo sapiens, UniProt P08253).
T2 sequence (P08253 110-660): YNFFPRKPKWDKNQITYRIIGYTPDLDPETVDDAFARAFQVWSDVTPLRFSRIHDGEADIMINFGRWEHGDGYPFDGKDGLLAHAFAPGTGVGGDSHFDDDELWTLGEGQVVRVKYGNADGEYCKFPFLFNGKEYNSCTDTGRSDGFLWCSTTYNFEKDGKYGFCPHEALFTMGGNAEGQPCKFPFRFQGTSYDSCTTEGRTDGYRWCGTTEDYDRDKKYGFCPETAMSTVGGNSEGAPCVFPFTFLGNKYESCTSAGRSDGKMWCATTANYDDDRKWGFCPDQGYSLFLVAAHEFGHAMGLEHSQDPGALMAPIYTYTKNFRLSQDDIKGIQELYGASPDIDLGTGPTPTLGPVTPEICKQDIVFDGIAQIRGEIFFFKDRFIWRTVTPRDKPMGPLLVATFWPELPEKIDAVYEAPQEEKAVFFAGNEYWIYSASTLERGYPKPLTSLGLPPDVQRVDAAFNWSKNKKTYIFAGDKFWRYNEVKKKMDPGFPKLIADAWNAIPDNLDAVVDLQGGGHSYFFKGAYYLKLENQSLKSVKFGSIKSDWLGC
Description: In-vitro fluorescence assay of MMP-2 activity. The format is biochemical.

For a further assay, the target named is MMP-13 (Homo sapiens, UniProt P45452). Description: In-vitro fluorescence assay of MMP-13 activity. The class given is biochemical. On the procedure:
See Knight, C. […] […].
The method was essentially the same as for the determination of MMP-1 activity, described above, except that the final concentration of purified MMP in the assay was 0.5 nM, prepared by diluting with the assay buffer.

Assay [2] deals with TNF-α secretion in Raw 264.7 cells. As to the kind of experiment: Cell-based assay for inhibition of TNF-α secretion in Raw cells. As to conditions: Mus musculus, RAW264.7, LPS 100 ng/ml, 4 hr. The essentials:
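Confluent Raw 264.7 cells were seeded overnight, refed, and pre-incubated 1 hr with compound (0.2% final DMSO), then stimulated with LPS at 100 ng/ml final for 4 hr at 37° C. Supernatant TNF-α measured by ELISA; % inhibition and IC50 by curve fitting.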

Assay [3] has as its system LPS-induced TNF-α secretion in human whole blood. As to the kind of experiment: Human whole blood assay for LPS-induced TNF-α secretion. The class given is cell-based. As to conditions: Homo sapiens, LPS 100 ng/ml, read-out: TNF Secretion HWB IC50. The essentials:
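Fresh blood from healthy volunteers pre-incubated 1 h at 37° C with compound (final DMSO <0.2%), then stimulated with 100 ng/ml LPS for 4 h or overnight at 37° C with rotation. Supernatant TNF-α measured by ELISA; percent inhibition and IC50 derived by curve fitting.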

Each structure is given as a SMILES string. Some results are limits rather than exact numbers.

T1 sequence (P78536 223-474 limits assumed): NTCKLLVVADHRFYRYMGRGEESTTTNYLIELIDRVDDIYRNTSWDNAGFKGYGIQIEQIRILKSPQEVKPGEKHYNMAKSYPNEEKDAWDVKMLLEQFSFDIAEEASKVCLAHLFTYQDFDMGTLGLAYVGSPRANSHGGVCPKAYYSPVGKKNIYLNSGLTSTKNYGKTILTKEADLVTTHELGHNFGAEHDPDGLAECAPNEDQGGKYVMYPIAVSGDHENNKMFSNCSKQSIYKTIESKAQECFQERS

For the molecule `CNC(=O)N1CC[C@@H](NS(=O)(=O)c2ccc(OCc3cc(C)nc4ccccc34)cc2)[C@@](C)(C(=O)NO)C1` [Example 50], the IC50 (usually the point on the concentration scale where inhibition reaches its midpoint) in assay [1] is 0.0037 µM; at recombinant human MMP-2 it was greater than 16.7 µM; at MMP-13, greater than 16.7 µM; in assay [2], greater than 1 µM; in assay [3], 22 µM.
In the case of `Cc1cc(COc2ccc(S(=O)(=O)N[C@@H]3CCN(C=O)C[C@]3(C)C(=O)NO)cc2)c2ccccc2n1` [Example 51, (3S,4R)-1-formyl-N-hydroxy-3-methyl-4-[({4-[(2-methylquinolin-4-yl)methoxy]phenyl}sulfonyl)amino]piperidine-3-carboxamide], the IC50 in assay [1] was less than 0.0006 µM; at recombinant human MMP-2 it was greater than 16.7 µM; at MMP-13, greater than 10 µM; in assay [2], greater than 1 µM; in assay [3], 30 µM.
For `Cc1cc(COc2ccc(S(=O)(=O)N[C@@H]3CCN(S(=O)(=O)C(C)C)C[C@]3(C)C(=O)NO)cc2)c2ccccc2n1` [Example 52, (3S,4R)-N-hydroxy-1-(isopropylsulfonyl)-3-methyl-4-[({4-[(2-methylquinolin-4-yl)methoxy]phenyl}sulfonyl)amino]piperidine-3-carboxamide], in that order: 0.0024 µM, greater than 16.7 µM, greater than 10 µM, 0.762 µM and 37 µM.
For `Cc1cc(COc2ccc(S(=O)(=O)N[C@@H]3CCC[C@]3(O)C(=O)NO)cc2)c2ccccc2n1` [Example 53, (1R,2R)-N,1-dihydroxy-2-[({4-[(2-methylquinolin-4-yl)methoxy]phenyl}sulfonyl)amino]cyclopentanecarboxamide], in that order: 0.0004 µM, greater than 16.7 µM, greater than 16.7 µM, 0.082 µM and 3.6 µM.
The like results for `Cc1cc(COc2ccc(S(=O)(=O)N[C@@H]3CCC[C@]3(F)C(=O)NO)cc2)c2ccccc2n1` [Example 54, (1R,2R)-1-fluoro-N-hydroxy-2-[((4-[(2-methylquinolin-4-yl)methoxy]phenyl}sulfonyl)amino]cyclopentanecarboxamide] were, in that order, less than 0.0006 µM, greater than 16.7 µM, greater than 10 µM, 0.019 µM and 2.3 µM.
Consider `Cc1cc(COc2ccc(S(=O)(=O)N[C@@H]3CCC[C@]3(C)C(=O)NO)cc2)c2ccccc2n1` [Example 55, (1S,2R)-N-hydroxy-1-methyl-2-[({4-[(2-methylquinolin4-yl)methoxy]phenyl}sulfonyl)amino]cyclopentanecarboxamide], for which the IC50 in assay [1] was less than 0.0006 µM; at recombinant human MMP-2 it was greater than 16.7 µM; against MMP-13, greater than 16.7 µM; in assay [2], 0.27 µM; in assay [3], 5.9 µM.
Regarding `CC[C@]1(C(=O)NO)CCC[C@H]1NS(=O)(=O)c1ccc(OCc2cc(C)nc3ccccc23)cc1` [Example 56, (1S,2R)-N-hydroxy-1-ethyl-2-[({4-[(2-methylquinolin-4-yl)methoxy]phenyl}sulfonyl)amino]cyclopentanecarboxamide], the IC50 in assay [1] is 0.0023 µM; on recombinant human MMP-2 it was greater than 10 µM; against MMP-13, greater than 10 µM; in assay [2] it was greater than 1 µM; in assay [3] it was 48 µM.
Regarding `CC[C@]1(C(=O)NO)CCC[C@H]1N(C)S(=O)(=O)c1ccc(OCc2cc(C)nc3ccccc23)cc1` [Example 57, (1S,2R)-N-hydroxy-1-ethyl-2-[methyl({4-[(2-methylquinolin-4-yl)methoxy]phenyl}sulfonyl)amino]cyclopentanecarboxamide], the IC50 in assay [1] was 0.0096 µM; on recombinant human MMP-2 it was greater than 10 µM; on MMP-13 it was greater than 10 µM; in assay [2], greater than 1 µM; in assay [3], greater than 50 µM.
